Measurements as given in patent US20250262251A1, “THERARONSTIC APPROACH FOR INFLAMMATORY BOWEL DISEASE-ASSOCIATED SPONDYLOARTHRITIS” (Cornell University, priority 2024, published 2025).

What was measured:
E. rectale DSM 17629 = test: E. rectale in vitro culture with sulfapyridine (but expression); format: cell-based, Eubacterium rectale; details: SP 1 mM
Experimental: (§1) CFU from F. prausnitzii cultures were assessed anaerobically in YCFA agar. Growth was measured by absorbance, OD600, on SpectraMax Plus (Molecular Devices, San Jose, CA). RNA isolation was performed using RNeasy PowerMicrobiome kit (Qiagen, Hilden, Germany) following the manufacture instructions. RNA was then quantified by Nanodrop prior to reverse transcription with qScript cDNA SuperMix kit (Quantabio, Beverly, MA) or RNAseq library preparation.
(§2) qPCR was performed on an Applied BioSciences Quant Studio 6 Flex Real-time PCR (Applied Biosystems, Waltham, MA) using PerfeCTa SYBR Green Fast mix, Low ROX (Quantabio, Beverly, MA). The following primers were used: for 16S rRNA gene −515F 5′ […] 3′ (SEQ ID NO:1), −926R 5′ […] 3′ (SEQ ID NO:2)^71 F. prausnitzii but gene F: 5′ […] 3′ SEQ ID NO:3), R: 5′ […] 3′ (SEQ ID NO:4) and E. rectale but gene F: 5′ […] 3′, SEQ ID NO:5) R: 5′ […] 3′ (SEQ ID NO:6) (designed on the PrimerQuest Tool from IDT, Coralville, IA). The thermocycler program was as follows: initial cycle of 95° C. for 60 s, followed by 40 PCR cycles at 95° C. for 5 s, 60° C. for 15 s, 72° C. for 15 s. Relative levels of the but target gene was determined by calculating the Δ Ct to the conserved 16S rRNA gene expression.

[1] = tested on: F. prausnitzii ATCC 27768; test: F. prausnitzii in vitro culture with sulfapyridine (growth, RNA-seq, qPCR, mass spectrometry); format: cell-based, Faecalibacterium prausnitzii
Experimental: (§3) To determine drug fecal levels and its impact on fecal metabolites, fecal samples were treated with cold 80% methanol for 4 hours at 4° C. Samples were then centrifuged at 14,000 g for 20 min at 4° C. Supernatants were transferred to a sterile 1.5 ml tube and stored at-80° C. Bacterial supernatants were treated with 4X volume of the 80% methanol. Polar metabolomic analysis was performed by the WCM Proteomics and Metabolomics Core for target polar metabolomics analysis by LC-MS. Metabolites were identified using an in-house library established using chemical standards. Identification required exact mass (within 5ppm) and standard retention times. To determine short chain fatty acids (SCFAs) fecal levels, target metabolomics were performed using liquid chromatography-quadruple-time of flight mass spectrometry as previously described^62. Relative metabolite quantitation was performed based on peak area for each metabolite evaluated and normalized by sample weight.
as §1
RNA-seq library preparation and sequencing were performed by WCM Genomics Core. For library preparation, the Illumina Stranded Total RNA Prep kit was used. High-throughput sequencing was performed using the PE 2×50 cycles protocol in the NovaSeq 6000 Illumina platform targeting 10 million reads/sample. Bioinformatics and statistical analysis were then performed by the WCM Bioinformatics Core. Samples were aligned with STAR^67 to NCBI reference genome GCF_000154385.1 (F. prausnitzii M21/2). Quality control was performed with QoRTs^68 on aligned BAM files. Counts per gene were then calculated using featureCounts^69. BioCyc^70 analyses were performed with clusterProfiler to identify pathways/gene sets that are overrepresented among the differentially expressed genes.
as §2

[2] = tested on: gnotobiotic mice colonized with IBD-pSpA donor microbiomes; test: Gnotobiotic mice colonized with responder or non-responder microbiomes: fecal butyrate and DSS colitis; format: in vivo, mouse
Experimental: (§4) Gnotobiotic C57BL/6 wild-type (WT) mice were bred and maintained at WCM Gnotobiotic Mouse facility. Specific pathogen free (SPF) C57BL/6 WT mice were ordered from Jackson Laboratory. C57BL/6 Gpr109a^−/− mice were obtained from Marcel van den Brink laboratory and were bred and maintained under SPF conditions at WCM.
(§5) For induction of chemical colitis, 2% dextran sulfate sodium (DSS) (wt/vol) (M.W. 40,000-50,000; Affymetrix, Santa Clara, CA) was added to drinking water and administered ad libitum for 7 days. Mice were then monitored daily for weight loss and survival. Mouse Lipocalin-2 was measured in the cecal content supernatant using sandwich enzyme-linked immunosorbent assay (R&D Systems, Minneapolis, MN).
For gnotobiotic experiments, germ-free (GF) mice were gavaged with 1 g of homogenized patient fecal samples diluted in 10 ml of reduced PBS under anaerobic conditions, as previously described^53. Mice gavaged with ATCC 27768 F. prausnitzii received 1×10^9 colony forming units (CFU) grown under anaerobic conditions at log-phase in Yeast Casitone Fatty Acids Broth with Carbohydrate media (YCFAC, Anaerobe Systems, Morgan Hill, CA).
as §3

DSS-induced colitis = DSS-induced colitis in SPF WT mice; format: in vivo, mouse; details: 2% DSS 7 days, SAS 300 mg/kg/day
Experimental: as §4, §5
(§6) All animal experiments were performed with 6-8-week-old WT, Gpr109a^−/− and heterozygous littermate mice. Both female and male mice were used with random and equal assignment of same sex to each experimental group. All animal studies were carried out in accordance with protocols approved by the Institutional Animal Care and Use Committee at WCM.

[3] = tested on: patients with a clinical diagnosis of IBD and ASAS-defined SpA; test: Prospective clinical study of SAS therapy in IBD-pSpA subjects (BASDAI, ASDAS, HBI, CRP); format: in vivo, human; set-up: proportion of treated patients who tolerated increase: dose or concentration left out as unconfirmed
Excerpt: Eligible patients of any gender were between the ages of 18-80 with ulcerative colitis (UC) or Crohn's disease (CD) and ASAS criteria of pSpA defined as the presence of peripheral arthritis, enthesitis or dactylitis^50. Patients with active SpA, defined as ASDAS>1.3 and/or BASDAI≥4, were eligible to participate^51, 52. […] Participants who declined therapy or were intolerant of SAS were followed as standard of care controls. […] All patients provided voluntary informed consent and the study ethics was approved by the Weill Cornell institutional review board (IRB 1504016115).
The primary endpoint of our analysis was clinical response in BASDAI, defined conservatively as a reduction in BASDAI of >2. Secondary endpoints were clinical response in ASDAS and Harvey Bradshaw Index (HBI) for CD defined as reduction in ASDAS of ≥1.1 at week 12 post-study initiation^51 or a decrease in HBI of ≥3^54, respectively. Exploratory analysis included absolute reduction in BASDAI, ASDAS, CRP, and HBI.
To determine significance of […] variables, Student's t test was applied if two groups were compared, otherwise two-way ANOVA test was used. For non-parametric data, Wilcoxon matched-pairs signed-rank test was calculated when paired analyses were carried, otherwise Mann-Whitney test was applied. If required, Bonferroni or Tukey tests were applied for multiple comparison correction. Metagenomic and transcriptomic analyses were performed in R studio (Boston, MA) using R package ‘phyloseq’^66 and plots were constructed in ‘ggplot2’ or GraphPad (San Diego, CA). Differential gene expression analysis was performed with DESeq2^72. Differential taxa or pathway abundance was assessed using linear discriminant analysis (LDA) effect size (LEfSe)^31. Correlation between two continuous variables (e.g. fecal drug levels, Δ BASDAI, alpha diversity) was determined with linear regression models. For discriminating responders from non-responders, we fit linear regression models on the relative abundances of select taxa and constructed corresponding ROC curves. Area under the curve (AUC) and P values were computed using R.

[4] = tested on: butyrate receptor Gpr109a; test: DSS-induced colitis in Gpr109a-deficient and heterozygous mice; format: in vivo, mouse
Experimental: as §4, §5, §6

[5] = tested on: Jackson SPF or germ-free C57BL/6 WT mice; test: Fecal short chain fatty acids and 5-ASA in SPF or germ-free mice treated with SAS or BSD; format: in vivo, mouse
Experimental: as §4, §5, §3

[6] = tested on: fecal samples of IBD-pSpA subjects; test: Fecal metabolomics of IBD-pSpA subjects treated with SAS; format: in vivo, human; details: responders
Experimental: as §3

[7] = RNA-seq, SP 1 mM vs NaOH vehicle
[8] = SPF WT mice, 300 mg/kg/day, day 14

Nc1ccc(S(=O)(=O)Nc2ccccn2)cc1 [SP, sulfapyridine]
expression of but in E. rectale (E. rectale DSM 17629): did not change | effect of dose on F. prausnitzii growth ([1]; 1 mM, anaerobic culture): sub-inhibitory | folT (folate ECF transporter S component FolT) expression ([1]; RNA-seq, SP 1 mM): upregulation | acetate kinase (ackA) expression [1, 7]: downregulation | but expression [1, 7]: concomitant increase | phosphate acetyltransferase (pta) expression [1, 7]: downregulation | thymidine kinase expression ([1]; bacterial cultures with SP): significant increase | thymine metabolites ([1]; bacterial cultures with SP): corresponding decrease | butyrate production ([1]; mass spectrometry after 22 and 46 hours of culture, both timepoints): robustly increased | induction of but in response to SP on supplementation with folate ([1]; qPCR, SP plus folate 566 μM): abrogated

O=C(O)c1cc(/N=N/c2ccc(S(=O)(=O)Nc3ccccn3)cc2)ccc1O [SAS, sulfasalazine]
abundance of fecal butyrate following SAS treatment ([2]; mice colonized with non-responder microbiome): not changed | abundance of fecal butyrate following SAS treatment ([2]; mice colonized with responder microbiomes): higher abundance | weight loss ([2]; non-responder microbiomes, DSS): not responsive | intestinal inflammation measured by lipocalin ([2]; responder microbiomes, DSS): reduced | weight loss ([2]; responder microbiomes, DSS): reduced | cecal lipocalin compared to control treated mice (DSS-induced colitis): reduced | mortality compared to control treated mice (DSS-induced colitis): significantly reduced | weight loss compared to control treated mice (DSS-induced colitis): attenuated | proportion of treated patients who tolerated increase ([3]; 22 patients treated with SAS, n=11): 50% | absolute score reduction in BASDAI compared to controls ([3]; baseline to week 12): significant absolute score reduction | difference in CRP alone compared to controls ([3]; baseline to week 12): no difference | reduction in all joint disease activity scores, 2 mg versus 4 mg daily ([3]; comparison between SAS doses): equivalent reduction | impact of baseline biologic or mesalamine therapy on change in disease activity scores following SAS treatment ([3]; human, in vivo): did not impact | proportion with clinical improvement using ASDAS ([3]; week 12, controls 0%, P=.07): 28.6% | proportion of patients achieving clinical response in joint symptoms (reduction in BASDAI of >2) ([3]; week 12, controls 9.1%, P=.04): 45.4% | inflammation measured by lipocalin ([4]; mice deficient for Gpr109a): no effect | survival ([4]; mice deficient for Gpr109a): no effect | weight loss ([4]; mice deficient for Gpr109a): no effect | intestinal inflammation measured by cecal lipocalin ([4]; mice heterozygous for Gpr109a): decreased intestinal inflammation | survival ([4]; mice heterozygous for Gpr109a): significantly improved | weight loss ([4]; mice heterozygous for Gpr109a): reduced weight loss | fecal butyrate levels post-treatment ([5]; GF mice): no changes | fecal acetate [5, 8]: no significant change | fecal butyrate levels compared to H2O vehicle controls [5, 8]: significant increase | fecal propionate [5, 8]: no significant change | thymine fecal abundance after SAS treatment ([6]; P=.016): significantly reduced | fecal deoxyuridine levels after SAS treatment ([6]; P=.05): concomitant increase

O=C(O)CCNC(=O)c1ccc(/N=N/c2ccc(O)c(C(=O)O)c2)cc1 [BSD, balsalazide]
fecal butyrate levels compared to H2O vehicle controls [5, 8]: numerically higher | conversion of prodrug by the mouse gut microbiome (5-ASA detection in fecal samples) ([5]; SPF mice, day 7 post-treatment initiation): efficiently converted
